This note sets out measurements from paper PMC8838408, “Antileishmanial Effects of Acetylene Acetogenins from Seeds of Porcelia macrocarpa (Warm.) R.E. Fries (Annonaceae) and Semisynthetic Derivatives” (Molecules, 2022).

Molecules are shown by their SMILES. Entries after “also recorded” stand apart in the source; their conditions may differ. Read-outs that look alike come from different tables or passages of the source.

Data set [1] deals with intracellular amastigote forms of Leishmania (L.) infantum. The experiment in a line: Activity against L. (L.) infantum intracellular amastigotes in infected peritoneal macrophages. The data set is classed as cell-based. To be noted: for SI (selectivity index): CC50 NCTC cells/IC50 parasites; for IC50 / IC50 L. (L.) infantum: 96 h; for IC50: read-out: IC50 L. (L.) infantum. On the procedure: L. (L.) infantum (MHOM/BR/1972/LD) was maintained through successive passages in golden hamsters up to 60–70 days post-infection. Amastigotes were harvested from spleens of infected hamsters by differential centrifugation.
(§1) Macrophages were collected from the peritoneal cavity of female BALB/c mice by washing with RPMI-1640 without phenol red, supplemented with 10% FBS at 37 °C in a humidified atmosphere containing 5% CO2. NCTC (clone 929) cells were maintained in RPMI-1640 (without phenol red and supplemented with 10% FBS) at 37 °C in the same conditions of the peritoneal macrophages.
The 50% inhibitory concentrations (IC50) against intracellular amastigotes for tested compounds were determined in infected macrophages. Peritoneal macrophages were obtained as described in the Section 3.6.3, and L. (L.) infantum amastigotes were obtained from spleens of infected hamsters by differential centrifugation. Peritoneal macrophages were seeded at 1 × 10^5 cells per well in Nunc™ 16-well slide chambers (Aldrich, St. Louis, MO, USA) for 24 h at 37 °C in a 5% CO2-humidified incubator. Next, amastigotes were isolated from a spleen of an infected hamster as described, counted, seeded at a 1:10 macrophages/amastigotes ratio, and incubated for 24 h. Non-internalized parasites were removed by washing twice with a culture medium. Then, the macrophages were incubated with compounds or standard drug (miltefosine) in a range of 100 to 0.78 μM for 96 h at 37 °C in a 5% CO2-humidified incubator, using miltefosine as a standard drug. At the end of the assay, the cells were fixed in methanol, stained with Giemsa, and observed under a digital light microscope (EVOS M5000, Thermo, Waltham, MA, USA) to determine the number of infected macrophages out of 400 cells.
(§2) The data obtained represent the mean and standard deviation of duplicate samples from at least three independent assays. IC50 and CC50 values were calculated using sigmoid dose–response curves in Graph Pad Prism 5.0 software (GraphPad Software, San Diego, CA, USA).

Data set [2] is described as follows: Cytotoxicity against mammalian cells (MTT assay). To be noted: mouse, NCTC clone 929 cells, highest concentration 200 μM. The data set is classed as cell-based. Here is the method:
as §1
The 50% cytotoxic concentration (CC50) was determined in NCTC clone 929 cells. NCTC cells were seeded at 6 × 10^4 cells/well in 96-well microplates and incubated with serial dilutions of the tested compounds or standard drug (miltefosine) to the highest concentration of 200 μM for 48 h at 37 °C in a 5% CO2-humidified incubator. An MTT assay determined the viability of the cells at 570 nm. The selectivity index (SI) was determined considering the following equation: CC50 NCTC cells/IC50 parasites.
as §2
In general terms: Tetrazolium assays rely on reduction of a dye to a coloured formazan, in cell work by metabolically active cells.

Where [3] appears, read: Peritoneal macrophage, intracellular amastigotes in BALB/c peritoneal macrophages, 100 to 0.78 μM, NA: non-active.
The mark [4] stands for this setting: intracellular amastigotes in BALB/c peritoneal macrophages, 100 to 0.78 μM, NA: non-active.

With `C=CCCCCCCC#CCCCCCCCCCC[C@@H]1C(=O)O[C@H](C)[C@@H]1O` [Compound 1, (2S,3R,4R)-3-hydroxy-4-methyl-2-(n-eicos-11′-yn-19′-enyl)butanolide], in data set [1], the “SI (selectivity index)” value is greater than 6.7. In addition, the IC50 (commonly the point on the concentration scale where inhibition reaches its midpoint) in data set [1] (setting [3]) is 29.9 ± 9.7 µM. The CC50 (commonly the concentration at which the toxic effect on the cells reaches its halfway point) at 48 h in data set [2] is greater than 200 µM.
For `C=CCCCCCCC#CCCCCCCCCCC[C@@H]1C(=O)O[C@H](C)[C@@H]1OC(C)=O` [Compound 1a, (2S,3R,4R)-3-Acetoxy-4-methyl-2-(n-eicos-11′-yn-19′-enil)butanolide], the “SI (selectivity index)” value in data set [1] is reported as greater than 4.6. Further, the results for the IC50 in data set [1] (setting [3]) and in data set [1] (setting [4]) were 43.3 µM and 43.4 ± 3.9 µM, respectively. Further, in data set [2], the CC50 at 48 h was greater than 200 µM.
Take `C=CCCCCCCC#CCCCCCCCCCCC1=C[C@@H](C)OC1=O` [Compound 1b, 4R-Methyl-2-(n-eicos-11′-yn-19′-enil)but-2-enolide]: the “SI (selectivity index)” value in data set [1] is greater than 8.6. Also, the concentration for half-maximal inhibition (IC50) in data set [1] (Peritoneal macrophage) worked out at 23.1 ± 5.4 µM. The molecule also came in with a CC50 at 48 h in data set [2] greater than 200 µM.
Turning to `CCCCCCCCC#CCCCCCCCCCC[C@@H]1C(=O)O[C@H](C)[C@@H]1O` [Compound 2, (2S,3R,4R)-3-hydroxy-4-methyl-2-(n-eicos-11′-ynyl)butanolide], the IC50 in data set [1] (setting [3]) is greater than 100 µM. The “IC50 L. (L.) infantum” value in data set [1] (setting [4]) was “inactive”. This molecule also had a CC50 at 48 h in data set [2] greater than 200 µM.
`CCCCCCCCC#CCCCCCCCCCC[C@@H]1C(=O)O[C@H](C)[C@@H]1OC(C)=O` [Compound 2a, (2S,3R,4R)-3-Acetoxy-4-methyl-2-(n-eicos-11′-ynil)butanolide]: the “IC50 L. (L.) infantum” value in data set [1] (setting [4]) was “no activity”. Also, the CC50 at 48 h in data set [2] is greater than 200 µM.
In the same order, the values of `CCCCCCCCC#CCCCCCCCCCCC1=C[C@@H](C)OC1=O` [Compound 2b, 4R-Methyl-2-(n-eicos-11′-ynil)but-2-enolide] are “no activity” and greater than 200 µM.
Take `CCCCCCCCCCCCCCCCCCCCC1C(=O)OC(C)C1O` [Compound 3, (2S,3R,4R)-3-Hydroxy-4-methyl-2-(n-eicosanil)butanolide]: in data set [1] (setting [3]), the 50% inhibitory concentration (IC50) is greater than 100 µM. Further, in data set [1] (setting [4]), the “IC50 L. (L.) infantum” value is listed as “lack of activity; also recorded: no activity”. Further, in data set [2], the CC50 at 48 h was greater than 200 µM.
On to `CCCCCCCCCCCCCCCCCCCCC1C(=O)OC(C)C1OC(C)=O` [Compound 3a, (2S,3R,4R)-3-Acetoxy-4-methyl-2-(n-eicosanil)butanolide], for which, in data set [1] (setting [4]), the “IC50 L. (L.) infantum” value is reported as “lack of activity; also recorded: no activity”. For the same molecule, the CC50 at 48 h in data set [2] is greater than 200 µM.
In the same order, the values of `CCCCCCCCCCCCCCCCCCCCC1=C[C@@H](C)OC1=O` [Compound 3b, 4R-Methyl-2-(n-eicosanil)but-2-enolide] are “lack of activity; also recorded: no activity” and greater than 200 µM.
For the molecule `CCCCCCCCCCCCCCCCOP(=O)([O-])OCC[N+](C)(C)C` [Miltefosine, reference compound], the “SI (selectivity index)” value in data set [1] was determined as 6.5. Further, the IC50 in data set [1] (setting [3]) came to 17.8 ± 1.4 µM. In data set [2], this molecule registered a cytotoxic concentration (CC50) at 48 h of 116 ± 5.3 µM.
